In general, IC50 refers to the concentration at which inhibition is half-maximal. The low end stands for greater potency in that assay, the high end for weaker potency in that assay. Broadly, the Km is the substrate concentration at which the rate is half of its maximum. As usually defined, the stoichiometry N is a count of units in the complex or per binding partner.

One data set addresses T1, SeNAGK + SePII (Synechococcus elongatus, UniProt Q6V1L5).
T1 construct: gene argB; His6-tagged SeNAGK hexamer mixed with Strep-tagged SePII; two PII trimers sandwich one NAGK hexamer (WT); both from E. coli; with Nitrogen regulatory protein P-II
Put plainly: coupled NAGK assay (pyruvate kinase/lactate dehydrogenase, NADH oxidation). The conditions noted are these: 25 µM arginine; 2-OG acts on PII site. Type of data set: biochemical.

For another data set, the target named is T2, PII-PipX complex (Synechococcus elongatus, UniProt P0A3F4).
T2 construct: gene glnB; Strep-tagged PII trimer pre-incubated with His6-tagged PipX; three PipX per PII trimer; both from E. coli
T2 sequence (P0A3F4 whole entry): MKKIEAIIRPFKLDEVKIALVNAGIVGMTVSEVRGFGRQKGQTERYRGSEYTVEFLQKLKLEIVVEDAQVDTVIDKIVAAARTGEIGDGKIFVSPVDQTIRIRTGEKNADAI
T2 sequence (Q7X386 1-89 partner): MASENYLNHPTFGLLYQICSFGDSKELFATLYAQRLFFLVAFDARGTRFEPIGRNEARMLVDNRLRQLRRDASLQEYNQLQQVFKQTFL
Put plainly: indirect SPR, His6-PipX on Ni-NTA chip. Type of data set: binding. The following applies: 10 mM Hepes pH 7.5, 150 mM NaCl, 1 mM MgCl2, 25 °C.

A further data set concerns the target T3, SeNAGK (Synechococcus elongatus, UniProt Q6V1L5).
T3 construct: gene argB; His6-tagged, E. coli BL21(DE3), His-Trap; hexamer, about 194 kDa
T3 sequence (Q6V1L5 1-301): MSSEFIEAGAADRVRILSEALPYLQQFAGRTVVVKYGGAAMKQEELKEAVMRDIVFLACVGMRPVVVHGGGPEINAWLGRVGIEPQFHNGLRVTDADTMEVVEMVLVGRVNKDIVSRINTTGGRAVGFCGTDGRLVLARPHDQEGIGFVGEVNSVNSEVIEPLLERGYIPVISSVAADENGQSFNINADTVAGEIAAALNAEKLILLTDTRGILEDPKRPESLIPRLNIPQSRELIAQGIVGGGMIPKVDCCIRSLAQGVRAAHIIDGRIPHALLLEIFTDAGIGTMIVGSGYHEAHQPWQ
Put plainly: coupled NAGK assay (pyruvate kinase/lactate dehydrogenase, NADH oxidation). Type of data set: biochemical. The text has this: coupled NAGK assay (pyruvate kinase/lactate dehydrogenase, NADH oxidation) on SeNAGK | Arginine feedback inhibition of non-complexed SeNAGK occurred with a half maximal inhibitory concentration (IC50) of […]

Substrate in data set [1]: CC(=O)N[C@@H](CCC(=O)O)C(=O)O
The data set is described as above. The following applies: without PII; without arginine. Type of data set: biochemical, Synechococcus elongatus. The source says: coupled NAGK assay (pyruvate kinase/lactate dehydrogenase, NADH oxidation) on SeNAGK

Substrate in data set [2]: CC(=O)N[C@@H](CCC(=O)O)C(=O)O
Described as above. Type of data set: biochemical, Synechococcus elongatus. The following applies: with SePII (WT); without arginine. The text has this:
coupled NAGK assay (pyruvate kinase/lactate dehydrogenase, NADH oxidation) on SeNAGK + SePII

Data set [3] deals with the molecule itself. Put plainly: SEC-MALS; PII mixed with NAGK (molar ratio 3:1 PII trimers to NAGK hexamers) 10 min at room temperature; Superose 6 Increase 10/300 GL; 100 mM Tris-HCl pH 7.8, 300 mM NaCl, 2 mM MgCl2, 2% glycerol; eluted fractions checked by SDS-PAGE. Background: In gel filtration, larger molecules generally elute earlier.

T1 sequence (P0A3F4 whole entry partner, one chain of several): as the sequence (P0A3F4 whole entry) above

As for `O=C(O)CCC(=O)C(=O)O` [2-OG], the “coupled NAGK assay (pyruvate kinase/lactate dehydrogenase, NADH oxidation)” value on SeNAGK + SePII was “complex of SeNAGK-SePII (WT) showed the typical inhibitory effect upon 2-OG addition”. Further, on PII-PipX complex (1 mM 2-OG with 1 mM ATP), the “indirect SPR, His6-PipX on Ni-NTA chip” value was 2-OG in presence of ATP impaired PipX-PII (WT) complex formation.

Regarding `Nc1ncnc2c1ncn2[C@@H]1O[C@H](COP(=O)(O)OP(=O)(O)O)[C@@H](O)[C@H]1O` [ADP], the “indirect SPR, His6-PipX on Ni-NTA chip” value on PII-PipX complex (1 mM ADP) is recorded as “strong positive effect of ADP on the interaction of PII (WT) with PipX”.

For `N=C(N)NCCC[C@H](N)C(=O)O` [arginine], half-maximal inhibition against SeNAGK (IC50) required 11 µM.

B1: SeNAGK (Synechococcus elongatus PCC 7942 = FACHB-805) (protein)
chain: MSSEFIEAGAADRVRILSEALPYLQQFAGRTVVVKYGGAAMKQEELKEAVMRDIVFLACVGMRPVVVHGGGPEINAWLGRVGIEPQFHNGLRVTDADTMEVVEMVLVGRVNKDIVSRINTTGGRAVGFCGTDGRLVLARPHDQEGIGFVGEVNSVNSEVIEPLLERGYIPVISSVAADENGQSFNINADTVAGEIAAALNAEKLILLTDTRGILEDPKRPESLIPRLNIPQSRELIAQGIVGGGMIPKVDCCIRSLAQGVRAAHIIDGRIPHALLLEIFTDAGIGTMIVGSGYHEAHQPWQ
notes: His6-tagged, E. coli BL21(DE3), His-Trap; hexamer, about 194 kDa
Take B1: the Km in data set [1] was determined as 5.1 ± 0.9 mM.

B2: SeNAGK + SePII (Synechococcus elongatus PCC 7942 = FACHB-805) (protein)
chain: MSSEFIEAGAADRVRILSEALPYLQQFAGRTVVVKYGGAAMKQEELKEAVMRDIVFLACVGMRPVVVHGGGPEINAWLGRVGIEPQFHNGLRVTDADTMEVVEMVLVGRVNKDIVSRINTTGGRAVGFCGTDGRLVLARPHDQEGIGFVGEVNSVNSEVIEPLLERGYIPVISSVAADENGQSFNINADTVAGEIAAALNAEKLILLTDTRGILEDPKRPESLIPRLNIPQSRELIAQGIVGGGMIPKVDCCIRSLAQGVRAAHIIDGRIPHALLLEIFTDAGIGTMIVGSGYHEAHQPWQ
notes: His6-tagged SeNAGK hexamer mixed with Strep-tagged SePII; two PII trimers sandwich one NAGK hexamer (WT); both from E. coli; with Nitrogen regulatory protein P-II
On to B2, for which the Km in data set [2] is on record as 2.9 ± 0.6 mM.

B3: SeNAGK, N-acetyl-L-glutamate kinase from S. elongatus PCC7942, His6-tagged (enzyme)
chain: MSSEFIEAGAADRVRILSEALPYLQQFAGRTVVVKYGGAAMKQEELKEAVMRDIVFLACVGMRPVVVHGGGPEINAWLGRVGIEPQFHNGLRVTDADTMEVVEMVLVGRVNKDIVSRINTTGGRAVGFCGTDGRLVLARPHDQEGIGFVGEVNSVNSEVIEPLLERGYIPVISSVAADENGQSFNINADTVAGEIAAALNAEKLILLTDTRGILEDPKRPESLIPRLNIPQSRELIAQGIVGGGMIPKVDCCIRSLAQGVRAAHIIDGRIPHALLLEIFTDAGIGTMIVGSGYHEAHQPWQ
notes: N-acetyl-L-glutamate kinase (NAGK) of Synechococcus elongatus PCC 7942; hexamer; also called His6-NAGK
Regarding B3, in data set [3], the “stoichiometry N” value was found to be 6.

The record behind these values is paper PMC6908673, “Tuning the in vitro sensing and signaling properties of cyanobacterial PII protein by mutation of key residues” (Scientific Reports, 2019).
